Measurements reported in ChEMBL document CHEMBL4725218, “Deep Learning Enhancing Kinome-Wide Polypharmacology Profiling: Model Construction and Experiment Validation” (J Med Chem, 2020).

Experiments:
[1] = target: T1, Homeodomain-interacting protein kinase 4 (Homo sapiens) (UniProt Q8NE63); test: Inhibition of human HIPK4 assessed as remaining enzyme activity at 0.01 uM
T1 sequence (whole entry): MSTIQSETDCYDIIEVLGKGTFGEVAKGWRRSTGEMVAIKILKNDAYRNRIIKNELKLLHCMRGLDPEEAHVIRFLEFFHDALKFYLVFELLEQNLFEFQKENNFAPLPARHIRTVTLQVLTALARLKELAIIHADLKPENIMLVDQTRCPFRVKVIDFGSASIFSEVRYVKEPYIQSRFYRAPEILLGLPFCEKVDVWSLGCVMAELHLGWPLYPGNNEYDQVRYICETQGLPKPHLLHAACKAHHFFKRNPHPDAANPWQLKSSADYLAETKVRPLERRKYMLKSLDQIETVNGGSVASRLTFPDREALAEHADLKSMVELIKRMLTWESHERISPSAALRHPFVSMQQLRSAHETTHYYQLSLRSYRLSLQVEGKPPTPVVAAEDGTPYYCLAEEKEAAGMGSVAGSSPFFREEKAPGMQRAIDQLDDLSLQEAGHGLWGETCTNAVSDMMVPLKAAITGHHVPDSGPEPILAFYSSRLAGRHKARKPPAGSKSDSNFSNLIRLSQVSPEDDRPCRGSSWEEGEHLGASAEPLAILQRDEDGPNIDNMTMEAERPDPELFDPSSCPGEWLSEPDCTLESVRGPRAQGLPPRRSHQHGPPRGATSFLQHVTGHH

[2] = target: Tyrosine-protein kinase ABL1 (Homo sapiens) (UniProt P00519); test: Inhibition of human ABL assessed as remaining enzyme activity at 0.1 uM
[3] = target: Macrophage colony-stimulating factor 1 receptor (Homo sapiens) (UniProt P07333); test: Inhibition of human FMS assessed as remaining enzyme activity at 1 uM
Chain of Macrophage colony-stimulating factor 1 receptor (Homo sapiens) (P07333 whole entry): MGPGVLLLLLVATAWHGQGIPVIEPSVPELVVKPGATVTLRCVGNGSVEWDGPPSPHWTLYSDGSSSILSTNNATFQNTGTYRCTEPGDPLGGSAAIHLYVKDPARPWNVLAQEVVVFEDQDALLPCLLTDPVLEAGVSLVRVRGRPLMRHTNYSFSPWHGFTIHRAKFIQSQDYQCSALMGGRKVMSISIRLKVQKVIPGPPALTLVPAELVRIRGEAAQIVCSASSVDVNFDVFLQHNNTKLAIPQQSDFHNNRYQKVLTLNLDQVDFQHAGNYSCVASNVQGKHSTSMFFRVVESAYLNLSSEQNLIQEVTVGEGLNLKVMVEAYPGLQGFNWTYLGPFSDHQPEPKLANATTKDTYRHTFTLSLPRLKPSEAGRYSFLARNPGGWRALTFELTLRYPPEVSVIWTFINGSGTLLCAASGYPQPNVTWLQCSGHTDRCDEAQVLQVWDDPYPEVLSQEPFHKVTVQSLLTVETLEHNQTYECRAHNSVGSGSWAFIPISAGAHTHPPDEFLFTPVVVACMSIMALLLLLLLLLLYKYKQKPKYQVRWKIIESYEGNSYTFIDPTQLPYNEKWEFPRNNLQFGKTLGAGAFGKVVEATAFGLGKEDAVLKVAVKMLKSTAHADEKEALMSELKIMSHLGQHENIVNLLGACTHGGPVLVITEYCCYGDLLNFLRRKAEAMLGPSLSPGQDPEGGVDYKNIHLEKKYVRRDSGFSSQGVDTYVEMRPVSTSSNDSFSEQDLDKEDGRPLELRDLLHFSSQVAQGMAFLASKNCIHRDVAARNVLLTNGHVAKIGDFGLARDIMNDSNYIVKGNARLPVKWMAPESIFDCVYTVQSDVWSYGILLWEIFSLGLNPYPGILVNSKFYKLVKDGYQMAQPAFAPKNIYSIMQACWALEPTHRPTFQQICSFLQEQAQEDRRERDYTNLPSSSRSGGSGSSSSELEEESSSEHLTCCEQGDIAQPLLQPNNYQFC

[4] = target: Vascular endothelial growth factor receptor 3 (Homo sapiens) (UniProt P35916); test: Inhibition of human VEGFR3 assessed as remaining enzyme activity at 0.01 uM
[5] = target: Tyrosine-protein kinase ABL1 (Mus musculus) (UniProt P00520); test: Inhibition of mouse Abl assessed as remaining enzyme activity at 0.01 uM
[6] = target: T2, Ephrin type-A receptor 8 (Homo sapiens) (UniProt P29322); test: Inhibition of human EphA8 assessed as remaining enzyme activity at 1 uM
T2 sequence (whole entry): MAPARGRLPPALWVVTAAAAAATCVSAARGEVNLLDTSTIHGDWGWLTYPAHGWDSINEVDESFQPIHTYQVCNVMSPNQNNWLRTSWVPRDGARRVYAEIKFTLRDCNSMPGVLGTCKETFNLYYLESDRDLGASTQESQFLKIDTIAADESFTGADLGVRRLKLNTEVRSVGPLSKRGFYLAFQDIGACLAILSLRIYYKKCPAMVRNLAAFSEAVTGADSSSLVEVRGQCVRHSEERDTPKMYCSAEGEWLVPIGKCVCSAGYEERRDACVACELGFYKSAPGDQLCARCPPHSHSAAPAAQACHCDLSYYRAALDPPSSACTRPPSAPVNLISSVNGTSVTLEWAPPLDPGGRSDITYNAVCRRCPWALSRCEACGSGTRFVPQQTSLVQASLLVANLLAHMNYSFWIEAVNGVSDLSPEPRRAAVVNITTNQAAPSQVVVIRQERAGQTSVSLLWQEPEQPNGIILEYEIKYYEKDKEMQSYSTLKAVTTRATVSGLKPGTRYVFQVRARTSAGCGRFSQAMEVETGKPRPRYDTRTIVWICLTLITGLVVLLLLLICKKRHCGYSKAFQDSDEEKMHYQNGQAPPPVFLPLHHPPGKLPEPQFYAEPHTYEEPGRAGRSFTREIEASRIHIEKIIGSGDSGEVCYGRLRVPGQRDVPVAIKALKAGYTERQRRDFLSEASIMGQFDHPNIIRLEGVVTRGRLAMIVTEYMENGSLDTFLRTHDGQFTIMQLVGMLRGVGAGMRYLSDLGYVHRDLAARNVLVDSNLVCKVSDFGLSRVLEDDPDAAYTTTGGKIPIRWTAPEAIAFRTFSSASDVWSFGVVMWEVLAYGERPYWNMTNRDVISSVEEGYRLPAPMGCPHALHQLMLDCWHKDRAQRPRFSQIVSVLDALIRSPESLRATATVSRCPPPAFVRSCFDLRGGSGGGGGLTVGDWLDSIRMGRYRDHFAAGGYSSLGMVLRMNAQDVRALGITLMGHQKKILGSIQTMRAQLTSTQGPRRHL

[7] = target: RAF proto-oncogene serine/threonine-protein kinase (Homo sapiens) (UniProt P04049); test: Inhibition of human RAF1 assessed as remaining enzyme activity at 1 uM
[8] = target: Homeodomain-interacting protein kinase 2 (Homo sapiens) (UniProt Q9H2X6); test: Inhibition of human HIPK2 assessed as remaining enzyme activity at 0.1 uM
[9] = target: Tyrosine-protein kinase ABL2 (Mus musculus) (UniProt Q4JIM5); test: Inhibition of mouse ARG assessed as remaining enzyme activity at 0.01 uM
Chain of Tyrosine-protein kinase ABL2 (Mus musculus) (Q4JIM5 whole entry): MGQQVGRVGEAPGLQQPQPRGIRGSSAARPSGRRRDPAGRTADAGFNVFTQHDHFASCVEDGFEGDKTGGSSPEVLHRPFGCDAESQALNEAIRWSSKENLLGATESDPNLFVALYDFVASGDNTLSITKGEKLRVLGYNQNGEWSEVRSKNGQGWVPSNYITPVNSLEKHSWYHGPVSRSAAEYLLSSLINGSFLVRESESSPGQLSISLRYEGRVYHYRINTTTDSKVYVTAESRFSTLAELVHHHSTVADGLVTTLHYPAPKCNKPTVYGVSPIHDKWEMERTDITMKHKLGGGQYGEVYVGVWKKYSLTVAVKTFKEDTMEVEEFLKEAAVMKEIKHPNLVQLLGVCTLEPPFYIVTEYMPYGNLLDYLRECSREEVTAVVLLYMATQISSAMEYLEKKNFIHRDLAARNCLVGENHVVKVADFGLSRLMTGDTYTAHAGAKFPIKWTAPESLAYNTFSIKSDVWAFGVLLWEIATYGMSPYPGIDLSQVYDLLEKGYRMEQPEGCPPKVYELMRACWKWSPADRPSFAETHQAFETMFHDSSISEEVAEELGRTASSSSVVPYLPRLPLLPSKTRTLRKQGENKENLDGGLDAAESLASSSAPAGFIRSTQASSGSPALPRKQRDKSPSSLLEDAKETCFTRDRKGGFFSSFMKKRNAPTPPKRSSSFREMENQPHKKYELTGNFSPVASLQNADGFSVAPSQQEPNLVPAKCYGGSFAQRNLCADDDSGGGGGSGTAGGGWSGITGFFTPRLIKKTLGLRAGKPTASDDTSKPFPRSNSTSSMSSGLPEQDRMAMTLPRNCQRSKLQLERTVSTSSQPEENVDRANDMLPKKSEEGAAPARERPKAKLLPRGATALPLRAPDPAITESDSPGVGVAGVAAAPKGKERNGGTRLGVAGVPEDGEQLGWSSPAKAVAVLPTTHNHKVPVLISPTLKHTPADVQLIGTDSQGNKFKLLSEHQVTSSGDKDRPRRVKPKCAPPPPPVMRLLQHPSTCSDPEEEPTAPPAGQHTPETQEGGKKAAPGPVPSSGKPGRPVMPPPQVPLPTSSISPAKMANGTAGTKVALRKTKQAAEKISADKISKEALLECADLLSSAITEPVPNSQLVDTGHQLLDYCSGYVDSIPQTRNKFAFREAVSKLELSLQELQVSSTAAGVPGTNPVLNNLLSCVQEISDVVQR

[10] = target: Mitogen-activated protein kinase 14 (Homo sapiens) (UniProt Q16539); test: Inhibition of human p38alpha assessed as remaining enzyme activity at 0.01 uM
Chain of Mitogen-activated protein kinase 14 (Homo sapiens) (Q16539 whole entry, the tested form may be a part): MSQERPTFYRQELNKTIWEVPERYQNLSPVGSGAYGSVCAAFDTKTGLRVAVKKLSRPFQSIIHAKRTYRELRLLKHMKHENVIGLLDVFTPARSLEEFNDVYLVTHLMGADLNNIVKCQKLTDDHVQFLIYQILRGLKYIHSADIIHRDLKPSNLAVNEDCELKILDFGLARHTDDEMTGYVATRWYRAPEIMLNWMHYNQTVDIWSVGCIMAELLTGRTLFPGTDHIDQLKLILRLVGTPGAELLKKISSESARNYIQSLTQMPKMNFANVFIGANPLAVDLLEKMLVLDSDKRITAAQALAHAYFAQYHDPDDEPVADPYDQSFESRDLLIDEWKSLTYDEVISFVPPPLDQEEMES

[11] = target: Vascular endothelial growth factor receptor 1 (Homo sapiens) (UniProt P17948); test: Inhibition of human VEGFR1 assessed as remaining enzyme activity at 0.01 uM
[12] = target: Tyrosine-protein kinase Blk (Mus musculus) (UniProt P16277); test: Inhibition of mouse BLK assessed as remaining enzyme activity at 1 uM
[13] = target: Mitogen-activated protein kinase 14 (Homo sapiens) (UniProt Q16539); test: Inhibition of human p38alpha assessed as remaining enzyme activity at 0.1 uM
[14] = target: Epithelial discoidin domain-containing receptor 1 (Homo sapiens) (UniProt Q08345); test: Inhibition of human DDR1 assessed as remaining enzyme activity at 1 uM
[15] = target: Mast/stem cell growth factor receptor Kit (Homo sapiens) (UniProt P10721); test: Inhibition of human c-Kit assessed as remaining enzyme activity at 1 uM
Chain of Mast/stem cell growth factor receptor Kit (Homo sapiens) (P10721 whole entry): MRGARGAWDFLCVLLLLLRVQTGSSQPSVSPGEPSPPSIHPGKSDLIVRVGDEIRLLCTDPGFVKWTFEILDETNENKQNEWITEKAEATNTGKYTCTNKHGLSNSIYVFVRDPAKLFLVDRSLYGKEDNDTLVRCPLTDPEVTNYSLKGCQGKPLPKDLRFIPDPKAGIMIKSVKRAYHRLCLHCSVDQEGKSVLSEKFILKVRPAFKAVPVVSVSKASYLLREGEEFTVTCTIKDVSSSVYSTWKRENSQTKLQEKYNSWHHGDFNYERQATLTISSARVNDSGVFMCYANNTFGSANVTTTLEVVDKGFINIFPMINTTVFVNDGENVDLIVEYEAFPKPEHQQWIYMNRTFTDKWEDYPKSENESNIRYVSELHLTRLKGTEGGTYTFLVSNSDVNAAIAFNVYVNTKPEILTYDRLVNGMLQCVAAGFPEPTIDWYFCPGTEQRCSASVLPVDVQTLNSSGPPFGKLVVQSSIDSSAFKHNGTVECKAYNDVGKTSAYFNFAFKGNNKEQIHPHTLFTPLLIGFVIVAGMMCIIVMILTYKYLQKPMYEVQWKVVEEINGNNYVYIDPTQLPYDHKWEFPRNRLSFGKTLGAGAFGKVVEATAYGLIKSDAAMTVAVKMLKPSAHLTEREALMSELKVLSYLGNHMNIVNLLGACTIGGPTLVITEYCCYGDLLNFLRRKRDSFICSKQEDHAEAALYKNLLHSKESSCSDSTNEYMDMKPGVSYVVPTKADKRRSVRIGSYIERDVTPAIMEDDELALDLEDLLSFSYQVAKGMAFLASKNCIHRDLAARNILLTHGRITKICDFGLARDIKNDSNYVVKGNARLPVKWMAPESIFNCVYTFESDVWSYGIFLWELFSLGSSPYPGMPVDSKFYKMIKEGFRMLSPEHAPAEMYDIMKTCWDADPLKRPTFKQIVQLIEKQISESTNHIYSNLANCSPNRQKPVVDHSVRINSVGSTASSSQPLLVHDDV

[16] = target: Mitogen-activated protein kinase kinase kinase 20 (Homo sapiens) (UniProt Q9NYL2); test: Inhibition of human ZAK assessed as remaining enzyme activity at 1 uM
Chain of Mitogen-activated protein kinase kinase kinase 20 (Homo sapiens) (Q9NYL2 2-800 limits assumed): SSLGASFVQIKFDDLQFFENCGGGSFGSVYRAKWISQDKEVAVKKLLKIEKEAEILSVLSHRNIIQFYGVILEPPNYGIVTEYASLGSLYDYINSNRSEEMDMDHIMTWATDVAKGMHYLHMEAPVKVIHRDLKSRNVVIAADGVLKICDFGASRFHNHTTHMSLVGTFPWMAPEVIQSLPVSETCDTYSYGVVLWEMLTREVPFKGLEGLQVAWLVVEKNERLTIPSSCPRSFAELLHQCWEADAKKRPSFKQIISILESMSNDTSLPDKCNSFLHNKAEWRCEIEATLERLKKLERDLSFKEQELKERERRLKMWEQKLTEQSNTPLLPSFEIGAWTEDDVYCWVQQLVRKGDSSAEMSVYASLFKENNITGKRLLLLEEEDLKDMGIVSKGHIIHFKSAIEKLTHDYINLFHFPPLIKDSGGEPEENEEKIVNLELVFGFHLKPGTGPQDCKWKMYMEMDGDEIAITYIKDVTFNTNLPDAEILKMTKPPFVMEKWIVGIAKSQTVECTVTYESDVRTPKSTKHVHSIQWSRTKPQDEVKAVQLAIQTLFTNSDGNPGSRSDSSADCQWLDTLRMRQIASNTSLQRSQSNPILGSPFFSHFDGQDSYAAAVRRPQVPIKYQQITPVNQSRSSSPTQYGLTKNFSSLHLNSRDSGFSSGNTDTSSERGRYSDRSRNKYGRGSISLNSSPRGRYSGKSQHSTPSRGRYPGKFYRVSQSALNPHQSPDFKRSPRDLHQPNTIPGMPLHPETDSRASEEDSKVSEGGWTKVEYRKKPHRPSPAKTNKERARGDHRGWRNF

[17] = target: Serine/threonine-protein kinase B-raf (Homo sapiens) (UniProt P15056); test: Inhibition of human B-Raf assessed as remaining enzyme activity at 0.01 uM
Chain of Serine/threonine-protein kinase B-raf (Homo sapiens) (P15056 whole entry): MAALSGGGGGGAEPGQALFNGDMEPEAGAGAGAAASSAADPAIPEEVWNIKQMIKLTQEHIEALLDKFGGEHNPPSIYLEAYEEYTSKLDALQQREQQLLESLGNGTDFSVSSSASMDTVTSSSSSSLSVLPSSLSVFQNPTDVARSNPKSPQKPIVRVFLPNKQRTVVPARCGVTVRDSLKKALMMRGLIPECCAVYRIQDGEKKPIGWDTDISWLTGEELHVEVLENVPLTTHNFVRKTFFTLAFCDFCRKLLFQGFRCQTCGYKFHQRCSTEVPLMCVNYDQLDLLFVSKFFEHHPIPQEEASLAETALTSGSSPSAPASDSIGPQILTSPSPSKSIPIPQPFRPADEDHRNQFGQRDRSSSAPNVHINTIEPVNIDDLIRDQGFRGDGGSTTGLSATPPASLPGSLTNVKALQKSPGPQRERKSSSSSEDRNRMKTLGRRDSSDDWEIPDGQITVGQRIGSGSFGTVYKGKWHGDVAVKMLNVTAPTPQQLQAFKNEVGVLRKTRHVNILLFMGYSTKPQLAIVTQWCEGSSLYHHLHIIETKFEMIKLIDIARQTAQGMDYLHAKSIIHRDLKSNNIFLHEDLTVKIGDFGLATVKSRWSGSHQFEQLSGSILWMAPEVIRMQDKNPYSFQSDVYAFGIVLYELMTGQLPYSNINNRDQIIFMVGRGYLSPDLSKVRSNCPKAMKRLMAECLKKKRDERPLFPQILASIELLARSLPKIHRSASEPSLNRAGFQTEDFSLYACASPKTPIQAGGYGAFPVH

[18] = target: Cyclin-dependent kinase-like 2 (Homo sapiens) (UniProt Q92772); test: Inhibition of human CDKL2 assessed as remaining enzyme activity at 1 uM
[19] = target: Mitogen-activated protein kinase kinase kinase 20 (Homo sapiens) (UniProt Q9NYL2); test: Inhibition of human ZAK assessed as remaining enzyme activity at 0.1 uM
[20] = target: Tyrosine-protein kinase ABL2 (Mus musculus) (UniProt Q4JIM5); test: Inhibition of mouse ARG assessed as remaining enzyme activity at 1 uM
[21] = target: Serine/threonine-protein kinase B-raf (Homo sapiens) (UniProt P15056); test: Inhibition of human B-Raf assessed as remaining enzyme activity at 0.1 uM

CNC(=O)c1cc(Oc2ccc(NC(=O)Nc3ccc(Cl)c(C(F)(F)F)c3)c(F)c2)ccn1
Activity [1]: 31%
Activity [2]: 49%
Activity [3]: 10%
Activity [4]: 38%
Activity [5]: 22%
Activity [6]: 5%
Activity [7]: 8%
Activity [8]: 61%
Activity [9]: 97%
Activity [10]: 100%
Activity [11]: 43%
Activity [12]: 1%
Activity [13]: 52%
Activity [14]: 11%
Activity [15]: -1%
Activity [16]: -1%
Activity [17]: 101%
Activity [18]: 47%
Activity [19]: 2%
Activity [20]: 9%
Activity [21]: 66%
